Reference: patent US11046694B2, “Compounds and methods for treating bacterial infections” (Entasis Therapeutics, Inc., priority 2018, dated 2021)
Converted amounts (≈) assume the structure as drawn. Counter-ions that a name gives are not always drawn.

What was measured:
P. aeruginosa WT (PAO1) = experiment: MIC, CLSI broth microdilution, P. aeruginosa; type: cell-based; conditions: Pseudomonas aeruginosa, PAO1; CLSI broth microdilution; read-out: P. aeruginosa WT (PAO1) MIC
P. aeruginosa PBP2 = target: T1, P. aeruginosa PBP2 (Pseudomonas aeruginosa, UniProt Q9X6V3); type: biochemical; conditions: P. aeruginosa PBP2 300 nM, BOCILLIN FL 30 nM, pH 6.2
T1 sequence (Q9X6V3 1-646): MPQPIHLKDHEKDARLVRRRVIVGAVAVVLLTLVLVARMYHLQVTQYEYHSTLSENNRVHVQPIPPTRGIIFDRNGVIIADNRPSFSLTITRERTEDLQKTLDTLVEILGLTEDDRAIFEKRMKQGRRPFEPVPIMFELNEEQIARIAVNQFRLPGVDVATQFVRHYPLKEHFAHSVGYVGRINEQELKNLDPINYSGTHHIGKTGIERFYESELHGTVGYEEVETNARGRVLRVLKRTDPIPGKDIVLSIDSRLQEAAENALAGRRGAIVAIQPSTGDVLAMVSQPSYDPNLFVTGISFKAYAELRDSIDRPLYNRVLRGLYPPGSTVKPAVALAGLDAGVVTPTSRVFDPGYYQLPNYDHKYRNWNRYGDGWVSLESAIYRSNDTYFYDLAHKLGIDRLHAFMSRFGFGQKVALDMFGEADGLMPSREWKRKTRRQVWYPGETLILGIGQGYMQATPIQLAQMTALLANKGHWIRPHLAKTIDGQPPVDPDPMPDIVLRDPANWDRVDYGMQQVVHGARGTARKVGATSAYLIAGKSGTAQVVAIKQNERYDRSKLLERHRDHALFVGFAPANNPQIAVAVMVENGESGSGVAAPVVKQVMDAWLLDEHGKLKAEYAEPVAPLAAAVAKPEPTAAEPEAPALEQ

A. baumannii (ARC3495) = experiment: MIC against A. baumannii; conditions: Acinetobacter baumannii, read-out: A. baumannii MIC (ARC3495) (mg/L)
[1] = system: K. pneumoniae (ATCC700603); experiment: MIC against K. pneumoniae; conditions: Klebsiella pneumoniae, ATCC700603, read-out: K. pneumoniae MIC (ATCC700603)
P. aeruginosa PBP1a = P. aeruginosa PBP1a (Pseudomonas aeruginosa, UniProt Q07806); type: biochemical; conditions: P. aeruginosa PBP1a 60 nM, BOCILLIN FL 30 nM, pH 7.0
Chain of P. aeruginosa PBP1a (Q07806 whole entry): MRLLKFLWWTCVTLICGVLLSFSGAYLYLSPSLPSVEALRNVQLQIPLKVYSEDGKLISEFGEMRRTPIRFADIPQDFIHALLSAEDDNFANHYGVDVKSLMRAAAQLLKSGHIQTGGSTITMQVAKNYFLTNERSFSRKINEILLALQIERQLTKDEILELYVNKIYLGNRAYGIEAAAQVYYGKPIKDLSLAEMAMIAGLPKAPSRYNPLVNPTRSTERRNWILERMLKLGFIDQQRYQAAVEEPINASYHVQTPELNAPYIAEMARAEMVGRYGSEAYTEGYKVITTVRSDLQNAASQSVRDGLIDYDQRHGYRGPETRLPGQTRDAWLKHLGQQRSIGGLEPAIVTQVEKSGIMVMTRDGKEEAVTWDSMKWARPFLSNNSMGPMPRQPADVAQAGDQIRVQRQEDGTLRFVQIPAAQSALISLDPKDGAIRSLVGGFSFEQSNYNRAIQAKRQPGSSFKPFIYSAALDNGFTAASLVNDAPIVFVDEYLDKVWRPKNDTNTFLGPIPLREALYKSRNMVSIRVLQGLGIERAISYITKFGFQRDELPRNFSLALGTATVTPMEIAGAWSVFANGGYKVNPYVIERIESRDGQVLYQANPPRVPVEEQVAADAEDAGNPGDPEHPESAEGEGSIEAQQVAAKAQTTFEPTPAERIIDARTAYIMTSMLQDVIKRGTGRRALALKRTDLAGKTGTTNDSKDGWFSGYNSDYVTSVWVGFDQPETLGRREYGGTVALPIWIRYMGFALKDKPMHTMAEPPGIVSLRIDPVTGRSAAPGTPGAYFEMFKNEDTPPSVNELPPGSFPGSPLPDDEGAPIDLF

P. aeruginosa PBP3 = P. aeruginosa PBP3 (Pseudomonas aeruginosa, UniProt G3XD46); type: biochemical; conditions: P. aeruginosa PBP3 60 nM, BOCILLIN FL 30 nM, pH 7.0
Chain of P. aeruginosa PBP3 (G3XD46 whole entry): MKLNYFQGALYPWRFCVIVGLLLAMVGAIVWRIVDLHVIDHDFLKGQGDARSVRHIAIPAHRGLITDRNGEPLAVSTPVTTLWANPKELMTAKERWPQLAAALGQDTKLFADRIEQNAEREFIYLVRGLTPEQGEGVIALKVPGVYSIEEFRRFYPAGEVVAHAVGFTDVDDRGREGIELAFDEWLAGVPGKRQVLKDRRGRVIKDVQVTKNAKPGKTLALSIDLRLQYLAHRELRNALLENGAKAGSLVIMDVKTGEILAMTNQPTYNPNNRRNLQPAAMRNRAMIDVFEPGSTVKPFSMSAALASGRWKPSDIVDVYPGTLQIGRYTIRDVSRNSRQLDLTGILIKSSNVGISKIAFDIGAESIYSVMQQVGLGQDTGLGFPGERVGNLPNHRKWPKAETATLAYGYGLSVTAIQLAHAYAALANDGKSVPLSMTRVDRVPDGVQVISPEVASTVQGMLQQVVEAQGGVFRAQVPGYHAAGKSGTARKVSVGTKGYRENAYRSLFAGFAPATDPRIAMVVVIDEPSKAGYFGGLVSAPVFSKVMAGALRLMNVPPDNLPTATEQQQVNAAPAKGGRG

E. coli (ATCC25922) = experiment: MIC against E. coli; conditions: Escherichia coli, ATCC25922, read-out: E. coli MIC (ATCC25922) (mg/L)

| SMILES | MIC (P. aeruginosa WT (PAO1)) [µg/mL] | PBP2 acylation rate, k(on) (M^−1 · s^−1) (P. aeruginosa PBP2) | MIC (A. baumannii (ARC3495)) [mg/L] | MIC [1] [µg/mL] | PBP1a acylation rate, k(on) (M^−1 · s^−1) (P. aeruginosa PBP1a) | PBP3 acylation rate, k(on) (M^−1 · s^−1) (P. aeruginosa PBP3) | MIC (E. coli (ATCC25922)) [mg/L] |
| --- | --- | --- | --- | --- | --- | --- | --- |
| Cn1ncc2c1[C@@H](/C(C#N)=N/O)N1C[C@@H]2N(OS(=O)(=O)O)C1=O (racemic) [Example 13] | > 16 | * (* represents a k(on) < 100 M^−1 · s^−1) | > 16 | > 16 | * (* represents a k(on) < 100 M^−1 · s^−1) | ** (** represents a k(on) of 100 to 10,000 M^−1 · s^−1) | < 8 |
| CN/C(=N\OCCCCN)[C@@H]1c2c(cnn2C)[C@@H]2CN1C(=O)N2OS(=O)(=O)O (racemic) [Example 6] | 8 to 16 (≈ 19.2 to 38.3 µM) | * (* represents a k(on) < 100 M^−1 · s^−1) | > 16 | > 16 | * (* represents a k(on) < 100 M^−1 · s^−1) | ** (** represents a k(on) of 100 to 10,000 M^−1 · s^−1) | 8 to 16 (≈ 19.2 to 38.3 µM) |
| Cn1ncc2c1[C@@H](/C(=N/O)NO)N1C[C@@H]2N(OS(=O)(=O)O)C1=O (racemic) [Example 10] | > 16 | * (* represents a k(on) < 100 M^−1 · s^−1) | > 16 | 8 to 16 (≈ 23 to 45.9 µM) | * (* represents a k(on) < 100 M^−1 · s^−1) | ** (** represents a k(on) of 100 to 10,000 M^−1 · s^−1) | 8 to 16 (≈ 23 to 45.9 µM) |
| CC(=O)O/N=C(\N)[C@@H]1c2c(cnn2C)[C@@H]2CN1C(=O)N2OS(=O)(=O)O [Example 70, Pyridium (4R,8S)-8-((Z)—N′-acetoxycarbamimidoyl)-1-methyl-6-oxo-4,8-dihydro-1H-4,7-methanopyrazolo[3,4-e][1,3]diazepin-5(6H)-yl hydrogen sulfate] | > 16 | * (* represents a k(on) < 100 M^−1 · s^−1) | > 16 | > 16 | * (* represents a k(on) < 100 M^−1 · s^−1) | ** (** represents a k(on) of 100 to 10,000 M^−1 · s^−1) | 8 to 16 |
| CCN/C(=N\O)[C@@H]1c2c(cnn2C)[C@@H]2CN1C(=O)N2OS(=O)(=O)O (racemic) [Example 5] | > 16 | * (* represents a k(on) < 100 M^−1 · s^−1) | > 16 | > 16 | ** (** represents a k(on) of 100 to 10,000 M^−1 · s^−1) | ** (** represents a k(on) of 100 to 10,000 M^−1 · s^−1) | < 8 |
| CCN1CCN(C(=O)NC/C(=N\O)[C@@H]2c3c(cnn3C)[C@@H]3CN2C(=O)N3OS(=O)(=O)O)C(=O)C1=O [Example 55, (4R,8S)-8-((E)-2-(4-ethyl-2,3-dioxopiperazine-1-carboxamido)-1-(hydroxyimino)ethyl)-1-methyl-6-oxo-4,8-dihydro-1H-4,7-methanopyrazolo[3,4-e][1,3]diazepin-5(6H)-yl hydrogen sulfate] | > 16 | * (* represents a k(on) < 100 M^−1 · s^−1) | > 16 | > 16 | * (* represents a k(on) < 100 M^−1 · s^−1) | * (* represents a k(on) < 100 M^−1 · s^−1) | < 8 |
| Cn1ncc2c1[C@@H](C1=NOC(Cc3ccccc3)C1)N1C[C@@H]2N(OS(=O)(=O)O)C1=O (mixture of isomers) [Example 36] | > 16 | * (* represents a k(on) < 100 M^−1 · s^−1) | > 16 | > 16 | ** (** represents a k(on) of 100 to 10,000 M^−1 · s^−1) | ** (** represents a k(on) of 100 to 10,000 M^−1 · s^−1) | < 8 |
| Cn1ncc2c1[C@@H](/C(=N/O)NCc1ccc(N)cc1)N1C[C@@H]2N(OS(=O)(=O)O)C1=O (racemic) [Example 12] | > 16 | * (* represents a k(on) < 100 M^−1 · s^−1) | > 16 | > 16 | ** (** represents a k(on) of 100 to 10,000 M^−1 · s^−1) | ** (** represents a k(on) of 100 to 10,000 M^−1 · s^−1) | < 8 |
| Cn1ncc2c1[C@@H](/C(CNS(N)(=O)=O)=N/O)N1C[C@@H]2N(OS(=O)(=O)O)C1=O [Example 56, (4R,8S)-8-((E)-1-(hydroxyamino)-2-(sulfamoyl)amino)ethyl)-1-methyl-6-oxo-4,8-dihydro-1H-4,7-methanopyrazolo[3,4-e][1,3]diazepin-5(6H)-yl hydrogen sulfate] | > 16 | * (* represents a k(on) < 100 M^−1 · s^−1) | > 16 | > 16 | ** (** represents a k(on) of 100 to 10,000 M^−1 · s^−1) | ** (** represents a k(on) of 100 to 10,000 M^−1 · s^−1) | < 8 |
| CN/C(=N\O)[C@H]1c2c(cnn2C)[C@H]2CN1C(=O)N2OS(=O)(=O)O (stereo in doubt) [Example 41, Sodium (4S*,8R*)-8-((Z)—N′-hydroxy-N-methylcarbamimidoyl)-1-methyl-6-oxo-4,8-dihydro-1H-4,7-methanopyrazolo[3,4-e][1,3]diazepin-5(6H)-yl hydrogen sulfate] | > 16 | * (* represents a k(on) < 100 M^−1 · s^−1) | > 16 | > 16 | * (* represents a k(on) < 100 M^−1 · s^−1) | ** (** represents a k(on) of 100 to 10,000 M^−1 · s^−1) | < 8 |
| CNC(=O)[C@@H]1c2c(cnn2C)[C@@H]2CN1C(=O)N2OS(=O)(=O)O [Comparator 2, reference compound] | > 16 | * (* represents a k(on) < 100 M^−1 · s^−1) | > 16 | > 16 | * (* represents a k(on) < 100 M^−1 · s^−1) | ** (** represents a k(on) of 100 to 10,000 M^−1 · s^−1) | < 8 |
| Cn1ncc2c1[C@@H](c1noc(=O)n1Cc1nc(N)cs1)N1C[C@@H]2N(OS(=O)(=O)O)C1=O [Example 53, (4R,8S)-8-(4-((4-aminothiazol-2-yl)methyl)-5-oxo-4,5-dihydro-1,2,4-oxadiazol-3-yl)-1-methyl-6-oxo-4,8-dihydro-1H-4,7-methanopyrazolo[3,4-e][1,3]diazepin-5(6H)-yl hydrogen sulfate] | > 16 | * (* represents a k(on) < 100 M^−1 · s^−1) | > 16 | > 16 | ** (** represents a k(on) of 100 to 10,000 M^−1 · s^−1) | ** (** represents a k(on) of 100 to 10,000 M^−1 · s^−1) | < 8 |
